According to article PMC6272846, “Synthesis and p38 Inhibitory Activity of Some Novel Substituted N,N′-Diarylurea Derivatives” (Molecules, 2016):

Columns and labels:
[1] = test system: TNF-α production, human whole blood; design: method as in PMID 11896401; settings: read-out: IC50, inhibition of LPS-induced TNF-α production; cited from earlier work
TNF-α production = test system: TNF-α production; design: method as in PMID 11896401; settings: 30 mg/kg p.o.; cited from earlier work
MAPKAPK2 = assay: Inhibition of MAPKAPK2 in GFP-MAPKAPk2_BHK cell model (nuclear translocation); type: cell-based; settings: GFP-MAPKAPk2_BHK cells
Experimental: In order to study p38α inhibition in a cell system, we investigated the ability of all compounds to inhibit the phosphorylation of mitogen-activated protein-kinase-activated protein kinase 2 (MAPKAPK2). Each compound was prepared at […] concentrations (1, 3, 10 and 30 nM, 0.1 and 0.3 μM), and the percentages of inhibition were calculated from the numbers of cells after treatment with the different compounds.
GFP-MAPKAPk2_BHK cells were cultured in 96-well plates (2.0 × 10^4/100 μL/well) containing 10% heat-inactivated foetal bovine serum (FBS) and 1 mg/mL G418 at 37 °C in humidified air containing 5% CO2 for 18–24 h. The cells were washed with nutrient solution (100 μL/well) and changed to the compound liquid (100 μL/well). Experiments were set up with the control, and the compound was repeated at each concentration in three wells. The cells were cultured in 96-well plates at 37 °C in humidified air containing 5% CO2 for 90 min. The cells were washed with the dye solution (20 μL/well), and the dyed cells were held for 1 hour at room temperature in the dye liquid. Analysis of nuclear translocation and calculation of the ability of the compounds to inhibit nuclear translocation was performed using the IN Cell Analyzer 1000 Nuclear Trafficking Analysis Module System (GE, Madison, WI, USA). The cultured cells were treated with the obtained compounds in […] concentration grads (1, 3, 10 and 30 nM, 0.1 and 0.3 μM). The inhibitory percentage can be calculated using the amounts of cells after the disposition of the different compounds.

MAPK14/p38α = MAPK14/p38α (Homo sapiens, UniProt Q16539); assay: p38α MAP kinase activity, phosphorylation of ATF-2 (TR-FRET); type: biochemical; settings: enzyme, GFP-ATF2 substrate, 90 μM ATP
MAPK14/p38α, sequence (Q16539 whole entry): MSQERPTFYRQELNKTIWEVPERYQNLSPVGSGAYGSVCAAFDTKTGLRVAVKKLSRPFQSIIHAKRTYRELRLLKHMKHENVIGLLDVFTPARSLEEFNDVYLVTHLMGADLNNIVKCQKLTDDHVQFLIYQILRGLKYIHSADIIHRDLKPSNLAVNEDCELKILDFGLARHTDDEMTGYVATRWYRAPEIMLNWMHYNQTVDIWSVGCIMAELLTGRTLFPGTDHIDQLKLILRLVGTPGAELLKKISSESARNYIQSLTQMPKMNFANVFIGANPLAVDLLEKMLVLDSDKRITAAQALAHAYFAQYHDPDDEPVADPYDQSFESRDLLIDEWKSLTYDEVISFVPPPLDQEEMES
Experimental: Kinase reaction buffer was composed of 50 mM HEPES (pH 7.5), 0.01% BRIJ-35, 10 mM MgCl2 and 1 mM EGTA. Prepared MAPK14/p38α in 1× kinase buffer with concentration at 500 ng/mL. A 2-fold serial dilution was performed using 1× kinase buffer from 500 ng/mL using 16 dose points. […] The reaction was started by adding 5 μL of the GFP-ATF2(19–96) substrate and ATP solution into each well of the assay plate. The final starting concentration of MAPK14/p38α was 250ng/ml, and the final GFP-ATF2 and ATP concentrations were 0.4 μM and 90 μM, respectively. The assay plate was sealed and incubated for 1 hour at room temperature (RT). Antibody solution (1 mL) was prepared from 20 mM EDTA and 4 nM Tb-antipATF2 (pThr71) antibody in TR-FRET dilution buffer. Antibody solution (10 μL) was added into each well of the assay plate and mixed gently. The final EDTA concentration was 10 mM, and the final Tb-antipATF2 (pThr71) concentration was 2 nM. The assay plate was sealed and incubated for 30 minutes at RT.
Inhibitor in 0.5% DMSO (2 μL/well) at 5-fold the final assay concentration was added into a 384-well assay plate. […] MAPK14/p38α (4 μL/well) was added to each well of the 384-well assay plate and incubated for 15 min at RT. To start the reaction, substrate GFP-ATF2 (19–96) and ATP (4 μL/well) were added into kinase reaction buffer. […] The resulting TR-FRET emission ratio was plotted against the concentration of inhibitor, and the data fitted to a sigmoidal dose-response curve with a variable slope. The IC50 concentration was calculated from the curve.

[2] = target: p38α mitogen-activated protein kinase (Homo sapiens, UniProt Q16539); assay: Surface plasmon resonance (Biacore) binding to p38α; settings: SPR, 25 °C
p38α mitogen-activated protein kinase, sequence (Q16539 whole entry): as above
Experimental: To assess the binding ability between the compounds and p38α protein, we used SPR for kinase inhibitor interaction studies.
The Biacore instrument uses a technique based on surface plasmon resonance to follow the real-time binding of compounds to immobilized proteins on a carboxymethyl dextran surface in a liquid milieu. Compounds were stored as 10 mM stock solutions in 100% dimethyl sulfoxide (DMSO). All light-sensitive compounds were handled under yellow protective light. […] ATP was dissolved directly in running buffer to make a 10 mM solution. The run was started with five start-up cycles in which running buffer was injected (instead of a sample) followed by sample injection cycles. Zero concentration samples were used as blanks. A typical analysis cycle consisted of a 60 s sample injection (30 μL/min), 120–200 s of buffer flow (dissociation phase), followed by a needle and tubing wash with 50% DMSO and buffer, and finally, a 30 s buffer injection to check for sample carry over. The flow cell temperature was 25 °C. Between sample series, a solvent correction cycle was run according to the instrument manual to adjust for referencing errors due to refractive index mismatches between running buffer and samples [35].

[3] = test system: TNF-α release from THP-1 cells; assay: Inhibition of TNF-α release from THP-1 cells after LPS stimulation; type: cell-based; settings: Homo sapiens; LPS-stimulated THP-1 cells
Experimental: LPS stock was prepared at 1 mg/mL by adding 1 mL sterile endotoxin-free water to 1 mg LPS powder. The LPS stock was aliquoted and stored at −20 °C. […] An amount of 100 K THP-1 cells were seeded into a 96-well cell culture plate in 100 μL of test medium. […] A total of 10 μL compound was added to the plate with cells, and the cells were incubated for 1 hour at 37 °C. An amount of 10 μL/well LPS was added to stimulate the cells. The final LPS concentration was 300 ng/mL, and the DMSO concentration was 0.3%. […]. The plate was incubated for 5 hours at 37 °C. […] Three replicates were used for each dose. At the 5th hour, the TNF-α in the supernatants and standard curve samples was determined using the HTRF kit. […] Amounts of 5 μL Anti-TNF-α-Cryptate (Invitrogen, Carlsbad, CA, USA) and 5 μL Anti-TNFα-XL665 (Invitrogen) were added, and the plate was incubated at RT for 15 h. The plate was read on an Envision instrument (PerkinElmer) and the IC50 was calculated.

SMILES | IC50 [1] [nM] | inhibition of LPS-induced TNF-α production in mice in vivo (TNF-α production) [%] | IC50 (MAPKAPK2) [nM] | IC50 (MAPK14/p38α) [nM] | Kd [2] [nM] | IC50 [3] [nM]
Cc1ccc(-n2nc(C(C)(C)C)cc2NC(=O)Nc2ccc(OCCN3CCOCC3)c3ccccc23)cc1 [BIRB-796, 1-(5-tert-butyl-2-p-tolyl-2h-pyrazol-3-yl)-3-[4-(2-morpholin-4-yl-ethoxy)naph-thalen-1-yl]urea] | 780 | 84 |  |  |  | 
Cc1ccc(-n2nc(C(C)(C)C)cc2NC(=O)NCc2ccccc2Oc2ccc3[nH]ncc3c2)cc1 [25a, 1-(2-((1H-Indazol-5-yl)oxy)benzyl)-3-(3-(tert-butyl)-1-(p-tolyl)-1H-pyrazol-5-yl)urea] |  |  | 1.36 ± 0.31 | 0.47 ± 0.02 | 15.4 | 0.73 ± 0.13
CC(C)(C)c1cc(NC(=O)NCc2ccccc2Oc2ccc3[nH]ncc3c2)n(-c2ccc([N+](=O)[O-])cc2)n1 [25h, 1-(2-((1H-Indazol-5-yl)oxy)benzyl)-3-(3-(tert-butyl)-1-(4-nitrophenyl)-1H-pyrazol-5-yl)urea] |  |  | 2.64 ± 0.56 | 0.82 ± 0.01 | 221 | 1.79 ± 0.48
Cc1cccc(-n2nc(C(C)(C)C)cc2NC(=O)NCc2ccccc2Oc2ccc3[nH]ncc3c2)c1 [25c, 1-(2-((1H-Indazol-5-yl)oxy)benzyl)-3-(3-(tert-butyl)-1-(m-tolyl)-1H-pyrazol-5-yl)urea] |  |  | 6.6 ± 0.66 | 0.77 ± 0.08 | 421 | 1.06 ± 0.05
